Laboratory results from patent publication US11629143B2, “HipK4 inhibitors and uses thereof” (Vibliome Therapeutics, LLC, priority 2020, dated 2023).

Columns and labels:
Assay in all cases: Kinase panel (mobility shift)
Type in all cases: biochemical
BRK = BRK (Homo sapiens, UniProt Q13882)
How it was run: (§1)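 Microfluidic mobility-shift readout: product and substrate peaks are resolved by charge, and their fluorescence is compared to give enzyme activity. Enzyme, fluorescent substrate and test compound are reacted, then terminated before chip loading. Values are binned at 5 um: A 95% or greater, B 90%-94%, C 80%-89%.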

EPH-A8 = target: T1, EPH-A8 (Homo sapiens, UniProt P29322)
T1 sequence (P29322 28-1005): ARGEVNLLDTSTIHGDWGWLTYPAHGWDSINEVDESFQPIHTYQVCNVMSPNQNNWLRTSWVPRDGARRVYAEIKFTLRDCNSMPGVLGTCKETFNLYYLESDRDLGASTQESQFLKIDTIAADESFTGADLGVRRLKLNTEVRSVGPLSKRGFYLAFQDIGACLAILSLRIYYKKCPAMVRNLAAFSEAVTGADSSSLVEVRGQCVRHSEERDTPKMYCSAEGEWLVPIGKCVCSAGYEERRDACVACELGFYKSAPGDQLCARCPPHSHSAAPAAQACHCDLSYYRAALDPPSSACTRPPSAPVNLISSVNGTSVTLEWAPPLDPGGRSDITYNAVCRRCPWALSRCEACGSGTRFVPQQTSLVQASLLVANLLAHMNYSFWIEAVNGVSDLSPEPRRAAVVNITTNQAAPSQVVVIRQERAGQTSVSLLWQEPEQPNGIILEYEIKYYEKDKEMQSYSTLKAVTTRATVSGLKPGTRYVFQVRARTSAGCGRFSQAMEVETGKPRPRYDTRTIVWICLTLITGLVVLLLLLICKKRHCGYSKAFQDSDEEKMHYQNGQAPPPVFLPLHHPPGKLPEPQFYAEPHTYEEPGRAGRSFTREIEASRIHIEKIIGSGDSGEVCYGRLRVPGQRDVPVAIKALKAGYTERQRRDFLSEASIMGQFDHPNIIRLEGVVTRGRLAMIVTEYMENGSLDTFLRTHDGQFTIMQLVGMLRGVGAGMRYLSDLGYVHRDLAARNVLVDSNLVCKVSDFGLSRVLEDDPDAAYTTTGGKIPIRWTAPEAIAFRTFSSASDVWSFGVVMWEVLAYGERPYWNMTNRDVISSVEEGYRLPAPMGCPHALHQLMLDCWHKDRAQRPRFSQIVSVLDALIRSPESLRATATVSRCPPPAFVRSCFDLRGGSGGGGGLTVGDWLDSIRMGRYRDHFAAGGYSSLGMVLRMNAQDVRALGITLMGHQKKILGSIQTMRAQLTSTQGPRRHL
How it was run: as §1

HIPK3 = HIPK3 (Homo sapiens, UniProt Q9H422)
How it was run: as §1

KIT = KIT (Homo sapiens, UniProt P10721)
How it was run: as §1

PDGFR-b = PDGFR-b (Homo sapiens, UniProt P09619)
How it was run: as §1

TRKA = TRKA (Homo sapiens, UniProt P04629)
How it was run: as §1

TYRO3 = target: T2, TYRO3 (Homo sapiens, UniProt Q06418)
T2 sequence (Q06418 41-890): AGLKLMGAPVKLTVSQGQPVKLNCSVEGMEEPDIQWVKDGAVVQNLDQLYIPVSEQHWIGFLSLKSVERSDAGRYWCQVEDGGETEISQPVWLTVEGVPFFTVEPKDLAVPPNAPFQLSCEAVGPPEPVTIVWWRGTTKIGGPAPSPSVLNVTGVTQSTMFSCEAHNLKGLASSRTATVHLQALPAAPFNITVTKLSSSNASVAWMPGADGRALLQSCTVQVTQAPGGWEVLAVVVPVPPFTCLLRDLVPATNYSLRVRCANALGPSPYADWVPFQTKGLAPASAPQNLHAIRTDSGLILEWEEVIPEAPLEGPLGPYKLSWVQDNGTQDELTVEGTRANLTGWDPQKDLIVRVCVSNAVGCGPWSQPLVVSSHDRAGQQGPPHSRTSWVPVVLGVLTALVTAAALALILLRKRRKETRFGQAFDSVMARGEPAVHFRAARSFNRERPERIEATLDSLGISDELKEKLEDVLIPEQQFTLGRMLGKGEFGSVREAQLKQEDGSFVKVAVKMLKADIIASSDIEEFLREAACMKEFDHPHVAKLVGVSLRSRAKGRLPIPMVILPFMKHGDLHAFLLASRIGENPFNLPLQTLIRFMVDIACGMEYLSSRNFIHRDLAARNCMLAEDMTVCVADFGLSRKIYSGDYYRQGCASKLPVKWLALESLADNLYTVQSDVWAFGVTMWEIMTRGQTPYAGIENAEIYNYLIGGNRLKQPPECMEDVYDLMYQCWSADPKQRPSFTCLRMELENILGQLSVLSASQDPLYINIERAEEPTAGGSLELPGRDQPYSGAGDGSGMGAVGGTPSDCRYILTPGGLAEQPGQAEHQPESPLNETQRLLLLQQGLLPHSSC
How it was run: as §1

HIPK3, sequence (Q9H422 whole entry, species assumed): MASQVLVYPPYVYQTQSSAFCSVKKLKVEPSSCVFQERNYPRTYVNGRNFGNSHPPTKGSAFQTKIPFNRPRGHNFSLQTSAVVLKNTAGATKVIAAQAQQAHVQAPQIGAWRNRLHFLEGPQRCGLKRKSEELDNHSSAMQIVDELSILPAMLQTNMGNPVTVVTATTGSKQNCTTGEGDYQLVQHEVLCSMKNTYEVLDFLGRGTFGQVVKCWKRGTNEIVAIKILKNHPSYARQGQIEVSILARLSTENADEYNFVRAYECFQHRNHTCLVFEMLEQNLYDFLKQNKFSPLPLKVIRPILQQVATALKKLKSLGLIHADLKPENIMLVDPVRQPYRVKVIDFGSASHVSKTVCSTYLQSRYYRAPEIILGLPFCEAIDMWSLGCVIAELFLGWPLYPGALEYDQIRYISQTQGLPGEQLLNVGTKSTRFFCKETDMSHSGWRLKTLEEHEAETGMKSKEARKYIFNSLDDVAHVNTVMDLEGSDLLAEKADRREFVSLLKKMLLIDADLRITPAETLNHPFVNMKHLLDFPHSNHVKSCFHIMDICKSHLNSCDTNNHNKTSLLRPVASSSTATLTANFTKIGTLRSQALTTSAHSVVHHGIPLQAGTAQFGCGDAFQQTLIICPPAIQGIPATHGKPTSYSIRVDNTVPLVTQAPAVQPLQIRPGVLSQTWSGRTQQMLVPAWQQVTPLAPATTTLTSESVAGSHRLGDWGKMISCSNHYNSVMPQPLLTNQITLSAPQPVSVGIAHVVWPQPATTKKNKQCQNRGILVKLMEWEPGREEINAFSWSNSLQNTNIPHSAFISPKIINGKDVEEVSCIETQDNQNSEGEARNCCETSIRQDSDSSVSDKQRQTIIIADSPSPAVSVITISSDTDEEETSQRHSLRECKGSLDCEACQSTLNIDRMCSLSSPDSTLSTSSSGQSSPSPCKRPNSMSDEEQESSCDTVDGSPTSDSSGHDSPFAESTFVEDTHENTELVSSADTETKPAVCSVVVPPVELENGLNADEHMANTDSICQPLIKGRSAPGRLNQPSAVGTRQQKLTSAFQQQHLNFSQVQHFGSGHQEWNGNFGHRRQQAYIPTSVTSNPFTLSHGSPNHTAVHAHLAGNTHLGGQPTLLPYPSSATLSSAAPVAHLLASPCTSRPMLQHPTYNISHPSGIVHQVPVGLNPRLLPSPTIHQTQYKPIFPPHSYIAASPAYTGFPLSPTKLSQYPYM
TRKA, sequence (P04629 33-796, species assumed): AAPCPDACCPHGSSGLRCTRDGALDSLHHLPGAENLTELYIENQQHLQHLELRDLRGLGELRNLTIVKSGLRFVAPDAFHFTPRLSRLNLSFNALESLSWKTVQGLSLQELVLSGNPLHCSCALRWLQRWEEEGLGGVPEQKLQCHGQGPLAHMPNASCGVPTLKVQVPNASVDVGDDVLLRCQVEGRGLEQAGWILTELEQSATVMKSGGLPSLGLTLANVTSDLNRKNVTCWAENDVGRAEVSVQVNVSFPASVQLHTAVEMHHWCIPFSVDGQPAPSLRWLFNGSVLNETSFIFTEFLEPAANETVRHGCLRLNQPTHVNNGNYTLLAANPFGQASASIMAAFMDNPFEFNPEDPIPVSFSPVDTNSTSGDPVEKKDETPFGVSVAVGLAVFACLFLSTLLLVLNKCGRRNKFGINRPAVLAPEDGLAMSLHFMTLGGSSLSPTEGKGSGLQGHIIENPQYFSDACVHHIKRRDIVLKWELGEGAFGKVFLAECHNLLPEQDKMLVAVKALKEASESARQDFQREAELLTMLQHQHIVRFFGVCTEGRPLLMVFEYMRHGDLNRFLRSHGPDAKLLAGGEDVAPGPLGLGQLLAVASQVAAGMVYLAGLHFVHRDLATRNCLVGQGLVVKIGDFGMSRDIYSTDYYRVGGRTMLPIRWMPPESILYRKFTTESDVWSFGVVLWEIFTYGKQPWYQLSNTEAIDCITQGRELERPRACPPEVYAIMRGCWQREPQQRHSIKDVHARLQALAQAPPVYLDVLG
BRK, sequence (Q13882 whole entry, species assumed): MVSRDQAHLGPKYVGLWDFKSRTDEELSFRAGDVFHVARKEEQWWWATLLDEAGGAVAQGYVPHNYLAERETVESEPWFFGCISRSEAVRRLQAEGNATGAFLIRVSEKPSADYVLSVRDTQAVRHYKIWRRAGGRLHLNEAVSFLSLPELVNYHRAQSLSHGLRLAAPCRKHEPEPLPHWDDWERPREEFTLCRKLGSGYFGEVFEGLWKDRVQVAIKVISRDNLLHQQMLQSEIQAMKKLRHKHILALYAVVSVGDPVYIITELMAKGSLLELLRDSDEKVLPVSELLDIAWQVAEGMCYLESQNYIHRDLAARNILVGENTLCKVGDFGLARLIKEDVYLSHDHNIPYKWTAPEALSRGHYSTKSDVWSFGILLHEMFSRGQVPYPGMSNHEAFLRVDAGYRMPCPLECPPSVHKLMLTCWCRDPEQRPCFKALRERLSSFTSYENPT
PDGFR-b, sequence (P09619 33-1106, species assumed): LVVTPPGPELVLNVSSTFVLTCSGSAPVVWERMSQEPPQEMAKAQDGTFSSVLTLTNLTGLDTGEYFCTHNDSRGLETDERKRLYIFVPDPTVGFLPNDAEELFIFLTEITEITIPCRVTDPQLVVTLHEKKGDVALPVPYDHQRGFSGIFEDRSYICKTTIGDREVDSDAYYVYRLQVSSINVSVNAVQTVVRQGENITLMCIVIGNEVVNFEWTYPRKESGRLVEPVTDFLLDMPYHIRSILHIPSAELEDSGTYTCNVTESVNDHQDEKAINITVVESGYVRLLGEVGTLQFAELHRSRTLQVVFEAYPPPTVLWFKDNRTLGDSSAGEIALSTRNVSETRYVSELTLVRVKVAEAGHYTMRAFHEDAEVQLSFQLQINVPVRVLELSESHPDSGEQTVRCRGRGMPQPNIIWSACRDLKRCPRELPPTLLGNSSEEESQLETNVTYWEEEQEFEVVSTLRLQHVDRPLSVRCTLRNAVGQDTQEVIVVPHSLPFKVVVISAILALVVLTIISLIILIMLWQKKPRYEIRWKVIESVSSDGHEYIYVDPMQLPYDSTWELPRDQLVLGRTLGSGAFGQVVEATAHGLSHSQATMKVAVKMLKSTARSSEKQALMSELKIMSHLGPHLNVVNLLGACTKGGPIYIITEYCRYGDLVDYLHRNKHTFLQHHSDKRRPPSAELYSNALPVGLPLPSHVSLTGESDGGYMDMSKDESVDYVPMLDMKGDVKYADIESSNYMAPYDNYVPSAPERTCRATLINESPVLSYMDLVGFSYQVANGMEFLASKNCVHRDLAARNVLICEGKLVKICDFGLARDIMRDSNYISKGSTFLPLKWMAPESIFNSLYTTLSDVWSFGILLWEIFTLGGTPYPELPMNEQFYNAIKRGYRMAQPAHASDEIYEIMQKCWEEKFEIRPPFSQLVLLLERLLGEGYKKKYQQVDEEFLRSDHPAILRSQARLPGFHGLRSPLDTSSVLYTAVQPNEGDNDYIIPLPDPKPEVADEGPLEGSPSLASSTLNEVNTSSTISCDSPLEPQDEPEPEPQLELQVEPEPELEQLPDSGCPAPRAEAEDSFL
KIT, sequence (P10721 26-976, species assumed): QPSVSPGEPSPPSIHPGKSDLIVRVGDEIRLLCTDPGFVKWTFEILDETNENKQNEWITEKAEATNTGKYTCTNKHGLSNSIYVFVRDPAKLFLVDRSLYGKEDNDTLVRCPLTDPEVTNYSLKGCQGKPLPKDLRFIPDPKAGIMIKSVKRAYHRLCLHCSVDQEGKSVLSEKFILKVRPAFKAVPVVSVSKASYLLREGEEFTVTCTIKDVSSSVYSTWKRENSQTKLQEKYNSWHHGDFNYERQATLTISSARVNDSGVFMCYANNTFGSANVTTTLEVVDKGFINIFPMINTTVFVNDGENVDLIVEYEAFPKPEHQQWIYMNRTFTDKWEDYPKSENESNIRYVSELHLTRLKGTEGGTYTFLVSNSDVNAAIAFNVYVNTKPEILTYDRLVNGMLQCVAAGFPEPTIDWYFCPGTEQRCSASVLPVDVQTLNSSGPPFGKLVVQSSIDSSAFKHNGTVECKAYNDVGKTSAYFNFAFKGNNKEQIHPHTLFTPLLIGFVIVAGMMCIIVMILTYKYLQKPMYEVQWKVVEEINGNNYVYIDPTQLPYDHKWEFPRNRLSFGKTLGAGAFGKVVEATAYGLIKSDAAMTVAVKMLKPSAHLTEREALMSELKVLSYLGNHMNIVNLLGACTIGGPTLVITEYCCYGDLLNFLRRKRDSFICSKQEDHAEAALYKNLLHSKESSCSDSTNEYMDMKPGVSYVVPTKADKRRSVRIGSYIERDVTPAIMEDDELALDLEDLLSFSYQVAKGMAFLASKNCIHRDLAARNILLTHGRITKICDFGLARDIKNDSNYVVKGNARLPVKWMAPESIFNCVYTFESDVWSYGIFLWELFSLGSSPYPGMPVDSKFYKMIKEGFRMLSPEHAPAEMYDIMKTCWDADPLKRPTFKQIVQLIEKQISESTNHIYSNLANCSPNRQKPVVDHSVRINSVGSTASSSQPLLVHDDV

Structure (SMILES): CNC(=O)c1cc(Oc2ccc(NC(=O)c3nc(SC(C)C)oc3-c3ccc(F)cc3)cc2F)ccn1 [Compound 34]
- inhibition at 5 µM (BRK): 90 to 94%
- inhibition at 5 µM (EPH-A8): 80 to 89%
- inhibition at 5 µM (HIPK3): < 50%
- inhibition at 5 µM (KIT): 50 to 79%
- inhibition at 5 µM (PDGFR-b): < 50%
- inhibition at 5 µM (TRKA): 80 to 89%
- inhibition at 5 µM (TYRO3): 80 to 89%

Structure (SMILES): CNC(=O)c1cc(Oc2ccc(NC(=O)c3nc(SC)oc3-c3ccc(Cl)s3)cc2)ccn1 [Compound 5]
- inhibition at 5 µM (BRK): 50 to 79%
- inhibition at 5 µM (EPH-A8): 50 to 79%
- inhibition at 5 µM (HIPK3): < 50%
- inhibition at 5 µM (KIT): < 50%
- inhibition at 5 µM (PDGFR-b): < 50%
- inhibition at 5 µM (TRKA): < 50%
- inhibition at 5 µM (TYRO3): 80 to 89%

Structure (SMILES): CNC(=O)c1cc(Oc2ccc(NC(=O)c3nc(COC)oc3-c3ccc(F)cc3)cc2F)ccn1 [Compound 30]
- inhibition at 5 µM (BRK): ≥ 95%
- inhibition at 5 µM (EPH-A8): 90 to 94%
- inhibition at 5 µM (HIPK3): 90 to 94%
- inhibition at 5 µM (KIT): 50 to 79%
- inhibition at 5 µM (PDGFR-b): < 50%
- inhibition at 5 µM (TRKA): 90 to 94%
- inhibition at 5 µM (TYRO3): ≥ 95%

Structure (SMILES): CSc1nc(C(=O)Nc2ccc(Oc3ccnc(N)c3Cl)c(F)c2)c(-c2ccc(F)cc2)o1 [Compound 1]
- inhibition at 5 µM (BRK): 50 to 79%
- inhibition at 5 µM (EPH-A8): < 50%
- inhibition at 5 µM (HIPK3): < 50%
- inhibition at 5 µM (KIT): < 50%
- inhibition at 5 µM (PDGFR-b): < 50%
- inhibition at 5 µM (TRKA): < 50%
- inhibition at 5 µM (TYRO3): 50 to 79%

Structure (SMILES): CSc1nc(C(=O)Nc2ccc(Oc3ccnc(-c4cnn(C)c4)c3)c(F)c2)c(-c2ccc(F)cc2)o1 [Compound 11]
- inhibition at 5 µM (BRK): ≥ 95%
- inhibition at 5 µM (EPH-A8): 80 to 89%
- inhibition at 5 µM (HIPK3): < 50%
- inhibition at 5 µM (KIT): 80 to 89%
- inhibition at 5 µM (PDGFR-b): < 50%
- inhibition at 5 µM (TRKA): 50 to 79%
- inhibition at 5 µM (TYRO3): ≥ 95%

Structure (SMILES): CSc1nc(C(=O)Nc2ccc(Oc3ccnc(C(=O)NC4COC4)c3)c(F)c2)c(-c2ccc(F)s2)o1 [Compound 28]
- inhibition at 5 µM (BRK): < 50%
- inhibition at 5 µM (EPH-A8): < 50%
- inhibition at 5 µM (HIPK3): < 50%
- inhibition at 5 µM (KIT): < 50%
- inhibition at 5 µM (PDGFR-b): < 50%
- inhibition at 5 µM (TRKA): < 50%
- inhibition at 5 µM (TYRO3): < 50%

Structure (SMILES): CNC(=O)c1cc(Oc2ccc(NC(=O)c3nc(NC)sc3-c3ccc(F)cc3C)cc2F)ccn1 [Compound 23]
- inhibition at 5 µM (BRK): 50 to 79%
- inhibition at 5 µM (EPH-A8): 50 to 79%
- inhibition at 5 µM (HIPK3): < 50%
- inhibition at 5 µM (KIT): 50 to 79%
- inhibition at 5 µM (PDGFR-b): < 50%
- inhibition at 5 µM (TRKA): 80 to 89%
- inhibition at 5 µM (TYRO3): 80 to 89%

Structure (SMILES): COc1nc(C(=O)Nc2ccc(Oc3ccnc(C(=O)NC4COC4)c3)c(F)c2)c(-c2ccc(F)cc2)o1 [Compound 39]
- inhibition at 5 µM (BRK): 50 to 79%
- inhibition at 5 µM (EPH-A8): < 50%
- inhibition at 5 µM (HIPK3): < 50%
- inhibition at 5 µM (KIT): < 50%
- inhibition at 5 µM (PDGFR-b): < 50%
- inhibition at 5 µM (TRKA): < 50%
- inhibition at 5 µM (TYRO3): 50 to 79%

Structure (SMILES): CSc1nc(C(=O)Nc2ccc(Oc3ccnc(C(=O)NC4COC4)c3)c(F)c2)c(-c2ccc(F)cc2)o1 [Compound 31]
- inhibition at 5 µM (BRK): 80 to 89%
- inhibition at 5 µM (EPH-A8): < 50%
- inhibition at 5 µM (HIPK3): < 50%
- inhibition at 5 µM (KIT): < 50%
- inhibition at 5 µM (PDGFR-b): < 50%
- inhibition at 5 µM (TRKA): < 50%
- inhibition at 5 µM (TYRO3): 50 to 79%

Structure (SMILES): CNC(=O)c1cc(Oc2ccc(NC(=O)c3nc(OC)oc3-c3ccc(F)cc3)cc2F)ccn1 [Compound 15]
- inhibition at 5 µM (BRK): 50 to 79%
- inhibition at 5 µM (EPH-A8): 80 to 89%
- inhibition at 5 µM (HIPK3): 50 to 79%
- inhibition at 5 µM (KIT): 50 to 79%
- inhibition at 5 µM (PDGFR-b): < 50%
- inhibition at 5 µM (TRKA): 50 to 79%
- inhibition at 5 µM (TYRO3): 90 to 94%

Structure (SMILES): CNC(=O)c1cc(Oc2ccc(NC(=O)c3nc(OC)oc3-c3ccc(F)s3)cc2F)ccn1 [Compound 25]
- inhibition at 5 µM (BRK): < 50%
- inhibition at 5 µM (EPH-A8): < 50%
- inhibition at 5 µM (HIPK3): < 50%
- inhibition at 5 µM (KIT): < 50%
- inhibition at 5 µM (PDGFR-b): < 50%
- inhibition at 5 µM (TRKA): < 50%
- inhibition at 5 µM (TYRO3): 50 to 79%

Structure (SMILES): [2H]C([2H])([2H])NC(=O)c1cc(Oc2ccc(NC(=O)c3nc(SC)oc3-c3ccc(F)c(F)c3)cc2F)ccn1 [Compound 33]
- inhibition at 5 µM (BRK): 50 to 79%
- inhibition at 5 µM (EPH-A8): < 50%
- inhibition at 5 µM (HIPK3): 50 to 79%
- inhibition at 5 µM (KIT): < 50%
- inhibition at 5 µM (PDGFR-b): < 50%
- inhibition at 5 µM (TRKA): 50 to 79%
- inhibition at 5 µM (TYRO3): 50 to 79%

Structure (SMILES): CNC(=O)c1cc(Oc2ccc(NC(=O)c3nc(SC)oc3-c3ccc(F)c(F)c3)cc2)ccn1 [Compound 4]
- inhibition at 5 µM (BRK): 50 to 79%
- inhibition at 5 µM (EPH-A8): 50 to 79%
- inhibition at 5 µM (HIPK3): 50 to 79%
- inhibition at 5 µM (KIT): 50 to 79%
- inhibition at 5 µM (PDGFR-b): < 50%
- inhibition at 5 µM (TRKA): 50 to 79%
- inhibition at 5 µM (TYRO3): 50 to 79%

Structure (SMILES): CNC(=O)c1cc(Oc2ccc(NC(=O)c3nc(C4CC4)oc3-c3ccc(F)cc3)cc2F)ccn1 [Compound 26]
- inhibition at 5 µM (BRK): 90 to 94%
- inhibition at 5 µM (EPH-A8): 80 to 89%
- inhibition at 5 µM (HIPK3): 50 to 79%
- inhibition at 5 µM (KIT): 50 to 79%
- inhibition at 5 µM (PDGFR-b): < 50%
- inhibition at 5 µM (TRKA): 80 to 89%
- inhibition at 5 µM (TYRO3): 90 to 94%

Structure (SMILES): CNC(=O)c1cc(Oc2ccc(NC(=O)c3nc(NC)oc3-c3ccc(F)s3)cc2F)ccn1 [Compound 17]
- inhibition at 5 µM (BRK): < 50%
- inhibition at 5 µM (EPH-A8): < 50%
- inhibition at 5 µM (HIPK3): < 50%
- inhibition at 5 µM (KIT): < 50%
- inhibition at 5 µM (PDGFR-b): < 50%
- inhibition at 5 µM (TRKA): 50 to 79%
- inhibition at 5 µM (TYRO3): < 50%

Structure (SMILES): CNC(=O)c1cc(Oc2ccc(NC(=O)c3nc(SC)oc3-c3ccc(OC)cc3)cc2)ccn1 [Compound 7]
- inhibition at 5 µM (BRK): < 50%
- inhibition at 5 µM (EPH-A8): < 50%
- inhibition at 5 µM (HIPK3): < 50%
- inhibition at 5 µM (KIT): < 50%
- inhibition at 5 µM (PDGFR-b): < 50%
- inhibition at 5 µM (TRKA): < 50%
- inhibition at 5 µM (TYRO3): < 50%

Structure (SMILES): CSc1nc(C(=O)Nc2ccc(Oc3ccnc(C(=O)NC4CNC4)c3)c(F)c2)c(-c2ccc(F)s2)o1 [Compound 27]
- inhibition at 5 µM (BRK): < 50%
- inhibition at 5 µM (EPH-A8): < 50%
- inhibition at 5 µM (HIPK3): < 50%
- inhibition at 5 µM (KIT): < 50%
- inhibition at 5 µM (PDGFR-b): < 50%
- inhibition at 5 µM (TRKA): < 50%
- inhibition at 5 µM (TYRO3): < 50%
